From US10745448B2, “Antiviral peptide and use therefor” (priority 2017, dated 2020) come the findings set out here.

Where “and” joins values, the source holds several entries; their conditions need not be identical. Equal values may be shown once. No end group written: not given here.

This assay deals with vesicular stomatitis Indiana virus (Indiana VSV). It is filed as cell-based.
In the case of “MKAIIVLLMVVTSNAKKRTLRKNDRKKR-CONH2 (MKAIIVLLMVVTSNAKKRTLRKNDRKKR-NH2) [Sample 3]”, the “Virus infectivity (virus titer)” value is 9.23 log10 PFU/mL and 6.34 log10 PFU/mL.

In the case of “MKTIIALSYIFCLALGKKRTLRKNDRKKR-CONH2 (MKTIIALSYIFCLALGKKRTLRKNDRKKR-NH2) [Sample 2]”, the “Virus infectivity (virus titer)” value was 9.07 log10 PFU/mL and 5.95 log10 PFU/mL.

Turning to “MLSYLIFALAVSPILGKKRTLRKNDRKKR-CONH2 (MLSYLIFALAVSPILGKKRTLRKNDRKKR-NH2) [Sample 1]”, the “Virus infectivity (virus titer)” value was 9.11 log10 PFU/mL and 5.90 log10 PFU/mL.
